Patent publication US20210070748A1, “INHIBITORS OF BRUTONS TYROSINE KINASE” (Pharmacyclics LLC, priority 2015, published 2021)
Like-named read-outs stand apart in the source and are kept apart here.

What was measured:
Assay type in all cases: biochemical
JAK3 = target: T1, JAK3 (Homo sapiens, UniProt P52333); assay: Inhibition of a panel of kinases, in vitro HotSpot kinase assay: JAK3; settings: for IC50: 1 μM ATP, read-out: IC50 JAK3; for JAK3* IC50 relative to Btk IC50 value: fold relative to Btk IC50 value
T1 sequence (P52333 1-1124): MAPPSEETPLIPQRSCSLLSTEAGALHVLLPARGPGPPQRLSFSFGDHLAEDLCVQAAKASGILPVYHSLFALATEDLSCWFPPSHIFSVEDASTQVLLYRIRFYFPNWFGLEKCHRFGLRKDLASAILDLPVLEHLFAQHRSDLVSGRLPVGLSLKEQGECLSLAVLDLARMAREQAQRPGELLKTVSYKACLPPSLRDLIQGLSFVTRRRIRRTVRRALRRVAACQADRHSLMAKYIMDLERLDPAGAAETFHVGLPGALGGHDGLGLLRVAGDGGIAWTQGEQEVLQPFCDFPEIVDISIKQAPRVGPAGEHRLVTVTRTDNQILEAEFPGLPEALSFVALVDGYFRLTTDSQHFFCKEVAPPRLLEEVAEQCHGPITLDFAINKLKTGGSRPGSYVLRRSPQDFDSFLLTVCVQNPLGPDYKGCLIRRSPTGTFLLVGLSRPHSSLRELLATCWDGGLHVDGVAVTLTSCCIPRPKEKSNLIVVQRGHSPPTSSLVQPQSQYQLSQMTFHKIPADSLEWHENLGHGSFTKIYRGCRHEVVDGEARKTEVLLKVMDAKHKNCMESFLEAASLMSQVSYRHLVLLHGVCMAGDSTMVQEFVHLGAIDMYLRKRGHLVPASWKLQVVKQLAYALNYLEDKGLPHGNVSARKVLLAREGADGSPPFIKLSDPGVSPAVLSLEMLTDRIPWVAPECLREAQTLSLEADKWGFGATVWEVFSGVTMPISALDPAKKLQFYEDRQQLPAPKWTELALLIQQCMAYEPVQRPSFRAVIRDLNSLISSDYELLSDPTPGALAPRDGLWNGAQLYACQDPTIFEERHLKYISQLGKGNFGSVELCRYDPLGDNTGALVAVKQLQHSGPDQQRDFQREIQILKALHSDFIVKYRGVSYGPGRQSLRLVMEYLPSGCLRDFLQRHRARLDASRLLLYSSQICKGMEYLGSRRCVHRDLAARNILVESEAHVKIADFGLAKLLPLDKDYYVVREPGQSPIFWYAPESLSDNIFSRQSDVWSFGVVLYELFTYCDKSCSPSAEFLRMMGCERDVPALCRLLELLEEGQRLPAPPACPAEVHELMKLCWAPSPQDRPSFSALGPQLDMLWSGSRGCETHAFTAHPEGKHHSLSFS

BTK-WT = target: T2, BTK-WT (Homo sapiens, UniProt Q06187); assay: Btk in vitro inhibitory activity (one of Method A TR-FRET, Method B electrophoretic mobility shift, Method C radiometric filter binding)
T2 construct: purified from insect cells as a full-length construct containing an N-terminal 6X-His tag; His6 (N); made in house; host or cells: insect cells (baculovirus Sf21 in Method B)

LCK = LCK (Homo sapiens, UniProt P06239); assay: Inhibition of a panel of kinases, in vitro HotSpot kinase assay: LCK; settings: for IC50: 1 μM ATP, read-out: IC50 LCK; for LCK* IC50 relative to Btk IC50 value: fold relative to Btk IC50 value
SRC = SRC (Homo sapiens, UniProt P12931); assay: Inhibition of a panel of kinases, in vitro HotSpot kinase assay: SRC; settings: for IC50: 1 μM ATP; for SRC* IC50 relative to Btk IC50 value: fold relative to Btk IC50 value
Procedure: The degree of inhibition of a panel of kinases is determined using the in vitro HotSpot kinase assay (purified enzymes, ^33P-ATP, an appropriate substrate and 1 μM ATP).

[1] = Table 13, A compounds, read-out: IC50 BTK-WT
[2] = Table 15, C compounds, read-out: IC50 BTK-WT

Sequence of SRC (P12931 whole entry): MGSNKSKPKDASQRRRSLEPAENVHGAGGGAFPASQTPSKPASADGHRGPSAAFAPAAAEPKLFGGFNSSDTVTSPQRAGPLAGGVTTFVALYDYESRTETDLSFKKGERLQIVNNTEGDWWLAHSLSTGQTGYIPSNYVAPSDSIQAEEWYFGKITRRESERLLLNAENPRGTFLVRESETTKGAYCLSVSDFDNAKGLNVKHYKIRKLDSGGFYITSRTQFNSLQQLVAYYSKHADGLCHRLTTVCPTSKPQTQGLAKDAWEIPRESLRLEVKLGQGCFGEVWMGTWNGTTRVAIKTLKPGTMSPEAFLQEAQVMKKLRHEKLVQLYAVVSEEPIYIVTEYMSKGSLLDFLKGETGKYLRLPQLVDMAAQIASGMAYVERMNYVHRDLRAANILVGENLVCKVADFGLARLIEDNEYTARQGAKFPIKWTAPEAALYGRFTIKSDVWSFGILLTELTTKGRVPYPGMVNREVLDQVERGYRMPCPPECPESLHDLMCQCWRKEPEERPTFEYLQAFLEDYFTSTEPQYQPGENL
T2 sequence (Q06187 whole entry): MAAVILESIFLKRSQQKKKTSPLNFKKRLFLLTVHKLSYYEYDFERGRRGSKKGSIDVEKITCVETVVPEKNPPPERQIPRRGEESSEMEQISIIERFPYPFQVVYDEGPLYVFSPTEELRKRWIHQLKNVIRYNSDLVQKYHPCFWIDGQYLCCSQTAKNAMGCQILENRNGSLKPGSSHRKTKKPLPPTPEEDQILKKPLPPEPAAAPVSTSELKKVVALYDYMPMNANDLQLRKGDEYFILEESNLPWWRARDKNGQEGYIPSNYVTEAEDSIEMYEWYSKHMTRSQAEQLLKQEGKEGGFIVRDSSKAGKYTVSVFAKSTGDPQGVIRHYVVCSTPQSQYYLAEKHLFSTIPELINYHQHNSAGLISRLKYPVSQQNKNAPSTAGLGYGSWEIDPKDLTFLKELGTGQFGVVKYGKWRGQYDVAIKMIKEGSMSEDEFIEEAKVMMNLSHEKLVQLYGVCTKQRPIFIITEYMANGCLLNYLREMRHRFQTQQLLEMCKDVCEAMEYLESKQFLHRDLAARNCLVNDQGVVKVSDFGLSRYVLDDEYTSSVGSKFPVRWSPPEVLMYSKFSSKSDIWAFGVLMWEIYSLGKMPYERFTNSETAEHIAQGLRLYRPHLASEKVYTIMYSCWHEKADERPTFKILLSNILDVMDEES
Sequence of LCK (P06239 whole entry): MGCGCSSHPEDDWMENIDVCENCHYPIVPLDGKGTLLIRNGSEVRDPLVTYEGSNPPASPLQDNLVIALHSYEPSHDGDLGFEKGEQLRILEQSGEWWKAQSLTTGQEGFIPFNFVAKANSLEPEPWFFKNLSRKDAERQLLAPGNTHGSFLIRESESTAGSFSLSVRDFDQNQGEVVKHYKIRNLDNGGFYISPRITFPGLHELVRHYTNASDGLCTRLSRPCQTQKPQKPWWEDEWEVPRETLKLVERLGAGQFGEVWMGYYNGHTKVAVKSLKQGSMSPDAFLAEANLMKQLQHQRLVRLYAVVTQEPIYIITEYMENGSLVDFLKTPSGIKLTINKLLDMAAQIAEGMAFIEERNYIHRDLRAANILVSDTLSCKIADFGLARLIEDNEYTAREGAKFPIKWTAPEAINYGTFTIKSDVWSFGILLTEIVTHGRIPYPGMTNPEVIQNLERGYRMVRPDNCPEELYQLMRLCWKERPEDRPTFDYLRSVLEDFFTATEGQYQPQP

## C[C@@H]1[C@H](NC(=O)N(C)C)CCCN1c1cnc(C(N)=O)c(Nc2ccc(C(=O)N3CCN(C)CC3)cc2)n1 [Example A-98, 5-[(2R,3R)-3-[(dimethylcarbamoyl)amino]-2-methylpiperidin-1-yl]-3-{[4-(4-methylpiperazine-1-carbonyl)phenyl]amino}pyrazine-2-carboxamide]
JAK3; Table 13, A compounds
  IC50: 1000 to 10000 nM
BTK-WT; [1]
  IC50: ≤ 10 nM
LCK; Table 13, A compounds
  IC50: 100 to 1000 nM
SRC; Table 13, A compounds
  IC50: 100 to 1000 nM

## CN1CCN(c2ccc(Nc3nc(N4CCC[C@@H](n5ccc6cc(C7CC7)ccc6c5=O)C4)cnc3C(N)=O)cc2)CC1 [Example A-99, 5-[(3R)-3-(6-cyclo-propyl-1-oxo-1,2-dihydroisoquinolin-2-yl)piperidin-1-yl]-3-{[4-(4-methylpiperazin-1-yl)phenyl]amino}pyrazine-2-carboxamide]
JAK3; Table 13, A compounds
  IC50: 1000 to 10000 nM
BTK-WT; [1]
  IC50: ≤ 10 nM
LCK; Table 13, A compounds
  IC50: 100 to 1000 nM
SRC; Table 13, A compounds
  IC50: 100 to 1000 nM

## C[C@@H]1[C@H](NC(=O)N(C)C)CCCN1c1cnc(C(N)=O)c(Nc2ccc(N3CCN(C)CC3)cc2)n1 [Example A-100, 5-[(2R,3R)-3-[(dimethylcarbamoyl)amino]-2-methylpiperidin-1-yl]-3-{[4-(4-methylpiperazin-1-yl)phenyl]amino}pyrazine-2-carboxamide]
JAK3; Table 13, A compounds
  IC50: 100 to 1000 nM
BTK-WT; [1]
  IC50: ≤ 10 nM
LCK; Table 13, A compounds
  IC50: 100 to 1000 nM
SRC; Table 13, A compounds
  IC50: 10 to 100 nM

## Cc1c(Nc2nc(N3CCC[C@@H](NC(=O)c4ccc(C5CC5)cc4)[C@H]3C)cnc2C(N)=O)cnn1C [Example A-191, 5-((2R,3)R-3-(4-cyclopropylbenzamido)-2-methylpiperidin-1-yl)-3-(1,5-dimethyl-1H-pyrazol-4-ylamino)pyrazine-2-carboxamide]
JAK3; Table 13, A compounds
  IC50: > 10000 nM
BTK-WT; [1]
  IC50: 10 to 100 nM
LCK; Table 13, A compounds
  IC50: 1000 to 10000 nM
SRC; Table 13, A compounds
  IC50: 1000 to 10000 nM

## Cc1nn(C)cc1Nc1nc(N2CCC[C@@H](NC(=O)c3ccc(C4CC4)cc3)[C@H]2C)cnc1C(N)=O [Example A-192, 5-((2R,3R)-3-(4-cyclopropylbenzamido)-2-methylpiperidin-1-yl)-3-(1,3-dimethyl-1H-pyrazol-4-ylamino)pyrazine-2-carboxamide]
JAK3; Table 13, A compounds
  IC50: > 10000 nM
BTK-WT; [1]
  IC50: 10 to 100 nM
LCK; Table 13, A compounds
  IC50: > 10000 nM
SRC; Table 13, A compounds
  IC50: > 10000 nM

## C[C@@H]1[C@H](NC(=O)c2cc3c(n2C)CC(C)(C)C3)CCCN1c1cnc(C(N)=O)c(Nc2cnn(C)c2)n1 [Example A-193, N-((2R,3R)-1-(5-carbamoyl-6-(1-methyl-1H-pyrazol-4-ylamino)pyrazin-2-yl)-2-methylpiperidin-3-yl)-1,5,5-trimethyl-1,4,5,6-tetrahydrocyclo-penta[b]pyrrole-2-carboxamide]
JAK3; Table 13, A compounds
  IC50: 100 to 1000 nM
BTK-WT; [1]
  IC50: ≤ 10 nM
LCK; Table 13, A compounds
  IC50: 100 to 1000 nM
SRC; Table 13, A compounds
  IC50: 100 to 1000 nM

## C[C@@H]1[C@H](NC(=O)c2ccc(C3CC3)cc2)CCCN1c1cnc(C(N)=O)c(Nc2cnn(C(F)F)c2)n1 [Example A-198, 5-[(2R,3R)-3-(4-cyclopropylbenzamido)-2-methylpiperidin-1-yl]-3-{[1-(difluoromethyl)-1H-pyrazol-4-yl]amino}pyrazine-2-carboxamide]
JAK3
  JAK3* IC50 relative to Btk IC50 value: 1276x
BTK-WT; read-out: BTK-WT IC50
  IC50: < 10 nM
LCK
  LCK* IC50 relative to Btk IC50 value: 112x
SRC
  SRC* IC50 relative to Btk IC50 value: 69x

## C[C@@H]1[C@H](NC(=O)c2ccc(C(C)(C)O)cc2)CCCN1c1cnc(C(N)=O)c(Nc2cnn(C)c2)n1 [Example A-200, 5-((2R,3R)-3-(4-(2-hydroxypropan-2-yl)benzamido)-2-methyl-piperidin-1-yl)-3-(1-methyl-1H-pyrazol-4-yl-amino)pyrazine-2-carboxamide]
JAK3
  JAK3* IC50 relative to Btk IC50 value: 411x
BTK-WT; read-out: BTK-WT IC50
  IC50: < 10 nM
LCK
  LCK* IC50 relative to Btk IC50 value: 88x
SRC
  SRC* IC50 relative to Btk IC50 value: 40x

## C[C@@H]1[C@H](NC(=O)c2ccc(C3CC3)cc2)CCCN1c1nnc(C(N)=O)c(Nc2cnn(C)c2)n1 [Example A-201, 3-[(2R,3R)-3-(4-cyclopropylbenzamido)-2-methylpiperidin-1-yl]-5-[(1-methyl-1H-pyrazol-4-yl)amino]-1,2,4-triazine-6-carboxamide]
JAK3
  JAK3* IC50 relative to Btk IC50 value: 1102x
BTK-WT; read-out: BTK-WT IC50
  IC50: < 10 nM
LCK
  LCK* IC50 relative to Btk IC50 value: 49x
SRC
  SRC* IC50 relative to Btk IC50 value: 47x

## Cn1cc(Nc2nc(N3CCC[C@@H](NC(=O)c4ccc(C5CC5)cc4)C3)nnc2C(N)=O)cn1 [Example A-202, 3-[(3R)-3-(4-cyclopropylbenzamido)piper-idin-1-yl]-5-[(1-methyl-1H-pyrazol-4-yl)amino]-1,2,4-triazine-6-carboxamide]
JAK3
  JAK3* IC50 relative to Btk IC50 value: 631x
BTK-WT; read-out: BTK-WT IC50
  IC50: < 10 nM
LCK
  LCK* IC50 relative to Btk IC50 value: 107x
SRC
  SRC* IC50 relative to Btk IC50 value: 159x

## C[C@@H]1[C@H](NC(=O)c2ccc(C(C)(C)C)cc2)CCCN1c1cnc(C(N)=O)c(Nc2cnn(C)c2)n1 [Example A-203, 5-((2R,3R)-3-(4-tert-butylbenzamido)-2-methylpiperidin-1-yl)-3-(1-methyl-1H-pyrazol-4-ylamino)pyrazine-2-carboxamide]
JAK3
  JAK3* IC50 relative to Btk IC50 value: 7353x
BTK-WT; read-out: BTK-WT IC50
  IC50: < 10 nM
LCK
  LCK* IC50 relative to Btk IC50 value: 684x
SRC
  SRC* IC50 relative to Btk IC50 value: 98x

## C[C@@H]1[C@H](NC(=O)c2ccc(C3CC3)cc2)CCCN1c1cnc(C(N)=O)c(Nc2cnn(C3CC3)c2)n1 [Example A-205, 3-[(1-cyclopropyl-1H-pyrazol-4-yl)amino]-5-[(2R,3R)-3-(4-cyclopropylbenzamido)-2-methylpiperidin-1-yl]pyrazine-2-carboxamide]
JAK3
  JAK3* IC50 relative to Btk IC50 value: 4032x
BTK-WT; read-out: BTK-WT IC50
  IC50: < 10 nM
LCK
  LCK* IC50 relative to Btk IC50 value: 102x
SRC
  SRC* IC50 relative to Btk IC50 value: 40x

## C[C@@H]1[C@H](NC(=O)c2ccc(C3COC3)cc2)CCCN1c1cnc(C(N)=O)c(Nc2cnn(C)c2)n1 [Example A-206, 3-(1-methyl-1H-pyrazol-4-ylamino)-5-((2R,3R)-2-methyl-3-(4-(oxetan-3-yl)benzamido)piperidin-1-yl)pyrazine-2-carboxamide]
JAK3
  JAK3* IC50 relative to Btk IC50 value: 341x
BTK-WT; read-out: BTK-WT IC50
  IC50: < 10 nM
LCK
  LCK* IC50 relative to Btk IC50 value: 63x
SRC
  SRC* IC50 relative to Btk IC50 value: 33x

## C=CC(=O)N1CCC[C@@H](Nc2nnc(C(N)=O)c(Nc3ccc(C(C)(C)C)cc3)n2)C1 [Example C-40, (R)-3-(1-acryloylpiperidin-3-ylamino)-5-(4-tert-butylphenylamino)-1,2,4-triazine-6-carboxamide]
JAK3; Table 15, C compounds
  IC50: < 10 nM
BTK-WT; [2]
  IC50: ≤ 10 nM
LCK; Table 15, C compounds
  IC50: 100 to 1000 nM

## C=CC(=O)N1CC[C@@H](N(C)c2nnc(C(N)=O)c(Nc3ccc(C(C)C)cc3)n2)C1 [Example C-41, (R)-3-((1-acryloylpyrrolidin-3-yl)(methyl)amino)-5-(4-isopropylphenylamino)-1,2,4-triazine-6-carboxamide]
JAK3; Table 15, C compounds
  IC50: < 10 nM
BTK-WT; [2]
  IC50: ≤ 10 nM
LCK; Table 15, C compounds
  IC50: 1000 to 10000 nM
SRC; Table 15, C compounds
  IC50: 10 to 100 nM

## C=CC(=O)N1CCC[C@@H](N(C)c2cnc(C(N)=O)c(Nc3ccc(C(C)C)cc3)n2)C1 [Example C-42, (R)-5-((1-acryloylpiperidin-3-yl)(methyl)amino)-3-(4-isopropylphenylamino) pyrazine-2-carboxamide]
JAK3; Table 15, C compounds
  IC50: 10 to 100 nM
BTK-WT; [2]
  IC50: ≤ 10 nM
LCK; Table 15, C compounds
  IC50: 1000 to 10000 nM
SRC; Table 15, C compounds
  IC50: 100 to 1000 nM

## C=CC(=O)N1CCC[C@@H](N(C)c2cnc(C(N)=O)c(Nc3ccc(C4(C)CCN(C5CCCC5)CC4)cc3)n2)C1 [Example C-44, (R)-5-((1-acryloylpiperidin-3-yl)(methyl)amino)-3-(4-(1-cyclopentyl-4-methylpiperidin-4-yl)phenylamino) pyrazine-2-carboxamide]
JAK3; Table 15, C compounds
  IC50: < 10 nM
BTK-WT; [2]
  IC50: ≤ 10 nM
LCK; Table 15, C compounds
  IC50: < 10 nM
SRC; Table 15, C compounds
  IC50: ≤ 10 nM
